Earlier results in patent US20100254946A1, “MAINTENANCE OF HAIR GROWTH AND TREATMENT OF HAIR-LOSS” (LIFE & BRAIN GMBH, priority 2007, published 2010).
“Also recorded” adds a separate entry of the source.

Legend:
P2Y5 receptor = target: T1, P2Y5 receptor (Homo sapiens, UniProt P43657)
T1 sequence (P43657 1-344): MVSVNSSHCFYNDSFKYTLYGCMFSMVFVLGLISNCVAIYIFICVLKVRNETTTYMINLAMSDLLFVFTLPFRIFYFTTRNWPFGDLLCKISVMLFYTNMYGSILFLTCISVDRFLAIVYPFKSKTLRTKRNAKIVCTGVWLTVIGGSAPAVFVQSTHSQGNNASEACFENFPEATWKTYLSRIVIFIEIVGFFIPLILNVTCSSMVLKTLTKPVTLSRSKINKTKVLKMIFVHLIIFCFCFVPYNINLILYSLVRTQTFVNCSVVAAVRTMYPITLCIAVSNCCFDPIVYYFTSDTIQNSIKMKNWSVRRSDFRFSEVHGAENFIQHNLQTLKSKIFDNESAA

[1] = target: T2, P2Y5 mutant p.Lys125AsnfsX37 (Homo sapiens, UniProt P43657); details: P2Y5 mutant p.Lys125AsnfsX37, LPA used as ligand
T2 construct: premature termination of translation of the P2Y5 receptor protein (p.Lys125AsnfsX37; expressed in transfected cells; vector pcDNA5/FRT/V5-His), transiently transfected with pCRE-luc
T2 sequence (P43657 with tags, fused parts or gaps): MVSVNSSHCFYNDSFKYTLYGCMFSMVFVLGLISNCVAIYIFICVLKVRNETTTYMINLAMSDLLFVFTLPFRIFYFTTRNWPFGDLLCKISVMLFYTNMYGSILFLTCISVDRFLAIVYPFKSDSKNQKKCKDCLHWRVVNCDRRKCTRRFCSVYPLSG

hair growth = details: mouse model, previously shown

SMILES: CCCCCCCC/C=C\CCCCCCCC(=O)OC[C@@H](O)COP(=O)(O)O [LPA, oleoyl-L-alpha-lysophosphatidic acid]
- ligand for the P2Y5 receptor (P2Y5 receptor): is a ligand of the P2Y5 receptor; also recorded: is a ligand for the P2Y5 receptor
- activation of a CRE luciferase reporter gene [1]: not capable of activating a CRE luciferase reporter gene
- stimulation of hair growth (hair growth): stimulate hair growth in vivo
